Data reported in patent US20010031282A1, “Process for the manufacture of a pulverous preparation” (ROCHE VITAMINS INC., priority 1996, published 2001).
Where two headings read alike, the source gives them in different places. Each block holds one compound with its values, some of them ahead of it.

Legend:
[1] = Solubility of pharmaceuticals in dimethylether (Example 7); type: physicochemical
Description: (§1) A comparison of solubility's of a number of pharmaceuticals was performed in the following way:
(§2) Approximately 3-5 g of the pharmaceutical was slightly compressed in an uniaxial press to avoid the formation of a stable suspension. The so compressed powder was given in a pressure chamber with a sapphire glass (30 ml volume). The temperature of the pressure chamber was controlled by water bath. Then the pressure in the chamber was increased using the corresponding gas and equilibrated for 1-3 hours. After equilibration a defined sample (1.0 ml) was drawn under constant pressure and temperature conditions using a high pressure line with a defined volume. […] The sample container was afterwards rinsed with the same liquid to collect the residues of the substance in the sample container.
(§3) The solubility (G/V) was determined either by HPLC or gravimetrically after removing the liquid.

[2] = Solubility of pharmaceuticals in carbon dioxide (Example 7); type: physicochemical
Description: as §1, §2, §3

[3] = Volume weighted particle size distribution after spraying (Examples 8, 9); type: physicochemical; conditions: dissolved at 40° C., 200×10^5 Pa, sprayed into second autoclave
Description: 100 g of solid Orlistat in a container with two sinter plates was charged into an autoclave having a volume of 6 l. The autoclave was kept at a temperature of 40° C. with a water bath. Then the autoclave was filled with gas up to a pressure of 200×10^5 Pa and equilibrated for 90 min. The autoclave was connected to a second autoclave via a heated high pressure line, kept at 40° C. This second autoclave has a volume of 4 l. The dissolved Orlistat was sprayed into this second autoclave. Thereby the pressure of the first autoclave was kept constant at 200×10^5 Pa by pumping in additional gas. The resulting volume weighted particle size distribution is as follows: 100 g of solid Saquinavir in a container with two sinter plates was charged into an autoclave having a volume of 6 l. The autoclave was kept at a temperature of 40° C. with a water bath. Then the autoclave was filled with gas up to a pressure of 200×10^5 Pa and equilibrated for 90 min. The autoclave was connected to a second autoclave via a heated high pressure line, kept at 40° C. This second autoclave has a volume of 4 l. The dissolved Saquinavir was sprayed into this second autoclave. Thereby the pressure of the first autoclave was kept constant at 200×10^5 Pa by pumping in additional gas. The resulting volume weighted particle size distribution is as follows: […]

[4] = Description: 250 g of solid trans-apoester (Ethyl-8′-apo-β-carotene-8′oate) were charged into an autoclave. The autoclave was adjusted to a temperature of 67° C. […] 1003 g of the solution was sprayed into a spray-tower via a nozzle having a bore hole of 0.2 mm. The flow rate was 84 g/min. During the spray procedure the pressure in the autoclave was maintained at 150×10^5 Pa by supplementation with fresh dimethyl ether. The sample composition was determined gravimetrically.
[5] = cited from earlier work
[6] = Stability of β-carotene in liquid solutions with highly compressible gases; type: physicochemical; conditions: temperatures in the region of its melting point of 180° C.
Description: In analogy to the procedure described in WO 95/21688 it has been investigated whether β-carotene forms liquid solutions with the mentioned and other highly compressible substances. β-Carotene forms liquid solutions with the gases only at temperatures in the region of its melting point of 180° C.

[7] = 500 bar, cited from earlier work
[8] = carbon dioxide or dinitrogen monoxide, pressures up to 500 bar; cited from earlier work
[9] = Solubility / miscibility of β-carotene in dimethyl ether; type: physicochemical
Description: It has now been discovered that dimethyl ether is useful as a solvent for β-carotene in processes such as those described above where the material to be produced as a powder is dissolved in a solvent at high temperature and pressure, and then the pressure is reduced whereby the solubility of the dissolved material decreases to the point where it precipitates from the solution as a fine powder. […] From PCT Patent Publication WO 96/15133 it is already known that dimethyl ether is an excellent solvent at elevated temperature and pressure conditions. The solubility of β-carotene in liquid dimethyl ether is strongly temperature dependent. About 1.1 wt. % of β-carotene dissolve in liquid dimethyl ether (vapour pressure 4 bar) at 25° C. At 60° C. (vapour pressure 15 bar) already 2.7 wt. % dissolve. At higher pressures (up to 300 bar) the solubility is practically not increased in this temperature region.
Thus, a homogeneous solution of β-carotene and dimethyl ether exists at 105° C. and pressures above 140 bar.
250 g of solid trans-β-carotene were charged into an autoclave having a volume of 1 l. The autoclave was thermostatted electrically to a temperature of 105° C. 500 g of dimethyl ether (cosmetic grade) were pumped into the autoclave. Dissolution of the carotene took about 60 minutes, with shaking of the autoclave. The pressure was then 175×10^5 Pa. A sample was taken at both the top and bottom lids of the autoclave. The sample compositions were determined gravimetrically. Both samples gave a carotene content of 33 wt. % and a dimethyl ether content of 67 wt. %, i.e. a homogeneous phase of carotene and dimethyl ether was present in the autoclave.

Structure (SMILES): COc1ccccc1Oc1c(NS(=O)(=O)c2ccc(C(C)(C)C)cc2)nc(-c2ncccn2)nc1OCCO [Bosentan]
solubility (CH3—O—CH3) ([1]; 45° C./200×10^5 Pa): 9.0 % (g/V) | solubility (CO2) ([2]; 45° C./200×10^5 Pa): <0.1 % (g/V)

Structure (SMILES): CC1=C(/C=C/C(C)=C/C=C/C(C)=C\C(=O)O)C(C)(C)CCC1 [Isotretionin]
solubility (CH3—O—CH3) ([1]; 45° C./200×10^5 Pa): 6.0 % (g/V) | solubility (CO2) ([2]; 45° C./200×10^5 Pa): 0.3 % (g/V)

Structure (SMILES): O=C(NCCN1CCOCC1)c1ccc(Cl)cc1 [Moclobemide]
solubility (CH3—O—CH3) ([1]; 45° C./200×10^5 Pa): 3.7 % (g/V) | solubility (CO2) ([2]; 45° C./200×10^5 Pa): 0.35 % (g/V)

Structure (SMILES): CCCCCCCCCCC[C@@H](C[C@@H]1OC(=O)[C@H]1CCCCCC)OC(=O)[C@H](CC(C)C)NC=O [Orlistat]
solubility (CH3—O—CH3) ([1]; 20° C./4.5×10^5 Pa): 17.8 % (g/V) | particle size, 10% of the particles (volume weighted) [3]: ≦0.40 μm | particle size, 50% of the particles (volume weighted) [3]: ≦1.02 μm | particle size, 90% of the particles (volume weighted) [3]: ≦2.43 μm | solubility (CO2) ([2]; 30° C./100×10^5 Pa): 0.6 % (g/V)

Structure (SMILES): CC(C)(C)NC(=O)[C@@H]1C[C@@H]2CCCC[C@@H]2CN1C[C@@H](O)[C@H](Cc1ccccc1)NC(=O)[C@H](CC(N)=O)NC(=O)c1ccc2ccccc2n1 [Saquinavir]
solubility (CH3—O—CH3) ([1]; 25° C./100×10^5 Pa): >10 % (g/V) | particle size, 10% of the particles (volume weighted) [3]: ≦0.4 μm | particle size, 50% of the particles (volume weighted) [3]: ≦0.9 μm | particle size, 90% of the particles (volume weighted) [3]: ≦1.8 μm | solubility (CO2) ([2]; 45° C./200×10^5 Pa): <0.1 % (g/V)

More lines, main results first:

content of the apoester in the sprayed dimethyl ether solution (gravimetric) ([4]; 67° C., 150×10^5 Pa, equilibrated 30 minutes): 10 wt % | particle size ([4]; Example 6, sprayed from dimethyl ether, 67° C., 150×10^5 Pa, nozzle 0.2 mm): 9 μm | mean particle size ([4]; Example 10, powder with gelatin/sucrose matrix, starch catch process): 0.23 μm
Structure (SMILES): CCOC(=O)/C(C)=C/C=C/C(C)=C/C=C/C=C(C)/C=C/C=C(C)/C=C/C1=C(C)CCCC1(C)C [apoester, Ethyl-8′-apo-β-carotene-8′oate]

solubility in liquid dimethyl ether ([9]; 25° C., vapour pressure 4 bar): About 1.1 wt. % | solubility in liquid dimethyl ether ([9]; 60° C., vapour pressure 15 bar): 2.7 wt. % | carotene content of the homogeneous dimethyl ether phase (gravimetric) ([9]; 105° C., 175×10^5 Pa, Example 1): 33 wt. % | miscibility with dimethyl ether ([9]; 105° C., pressures above 140 bar): miscible without limitation in any ratio
Structure (SMILES): CC1=C(/C=C/C(C)=C/C=C/C(C)=C/C=C/C=C(C)/C=C/C=C(C)/C=C/C2=C(C)CCCC2(C)C)C(C)(C)CCC1 [β-carotene]
dissolution in liquid sulphur dioxide ([5]; 15° C.): 0.59 wt. % | highest concentration in supercritical fluids (ethylene) ([5]; ethylene, 55° C., 500 bar): 0.035 wt. % | concentration in the solvents which are liquid at room temperature ([5]; liquid solvents except CS2): below 1 wt. % | solubility in CS2 ([5]; room temperature): 3.5 wt. % | stability in liquid solution with the gases [6]: isomerizes or decomposes after a very short time | solubility in carbon dioxide ([7]; 35° C.): 0.00049 wt. % | solubility in carbon dioxide ([7]; 55° C.): 0.0016 wt. % | β-carotene concentration in supercritical gases [8]: 0.01 wt. %
